Tests used:
Format in all cases: cell-based, human
SiHa cells [1] = test: MTT cell viability, SiHa cells, TRAIL-induced apoptosis; conditions: for increase in cell death in the presence than in the absence of TRAIL: from the EC50 values of Table 2; for concentration required to inhibit binding and to sensitize cells: cell sensitization experiments
Description: (§1) FIGS. 3A-E are graphs providing data regarding resistance of HPV^+ SiHa cells to TRAIL-, cisplatin- and […] apoptosis, in the presence and absence of small molecules as disclosed herein. (FIG. 3A) HPV^+ SiHa cells are resistant to TRAIL-induced apoptosis as compared to the human osteosarcoma cell line U2OS. Cells (2×10^4 cells per well) were seeded into a 96-well plate, allowed to incubate overnight, and then treated with indicated concentration of TRAIL in the presence of cycloheximide (5 μg/ml). The viability of cells was measured after overnight incubation using the MTT assay; the viability of cells untreated with TRAIL was set at 100% for each group. (FIG. 3B) The indicated concentrations of three small molecules were added to SiHa cells, and an MTT assay was preformed after overnight incubation. The viability of cells untreated with small molecules was set as 100%. (FIG. 3C) The indicated concentrations of myricetin or spinacine were added 4 h prior to TRAIL (100 ng/ml) in the presence of cycloheximide (5 μg/ml) and incubated at 37° C. overnight. The viability of cells untreated with small molecules was set at 100%. (FIG. 3D and FIG. 3E) SiHa cells (2×10^4 cells per well) were seeded into a 96-well plate and allowed to incubate overnight. 100 μM of myricetin and 50 μM of spinacine were added 4 h prior to either (FIG. 3D) doxorubicin or (FIG. 3E) cisplatin. Cell viability was measured after overnight incubation using the MTT assay, and the viability of cells untreated with either myricetin or spinacine was set at 100%. Experiments were performed in triplicate, and error bars indicate the standard deviation.
FIGS. 5A-B are graphs showing myricetin and spinacine (5) re-sensitized HPV^+, but not HPV^−, cells to treatment with TRAIL. SiHa (2×10^4 cells per well) and C33A cells (1×10^4 cells per well) were seeded into a 96-well plate and allowed to incubate overnight, then cells were pre-treated in the presence or absence of myricetin (100 μM) (FIG. 5A) or spinacine (50 μM) (FIG. 5B) for 4 h. The indicated concentration of TRAIL, along with cycloheximide (5 μg/ml) was added and cells were allowed to incubate overnight. Cell viability was measured by MTT assay, and the viability of cells untreated with TRAIL was set at 100%. Experiments were performed in triplicate, and error bars indicate the standard deviation.
(§2) The molecules were then tested to determine whether those that block E6/caspase 8 binding in vitro could also act in the context of a cell. SiHa cells are an HPV^+ cell line, derived from a cervical carcinoma, which serves as a commonly used model for HPV-associated malignancies. To determine whether HPV^+ SiHa cells are resistant to TRAIL-induced apoptosis, SiHa cells were treated with TRAIL and cell viability was assessed. TRAIL-sensitive, HPV^− U2OS cells served as a positive control. […] Myricetin and/or spinacine were tested to determine if they could sensitize these HPV^+ cells to TRAIL-induced apoptosis. […] Table 2 lists and compares the concentrations of the three tested compounds required to induce death in 50% of SiHa cells in the presence or absence of TRAIL.
The extracellular domain of human TRAIL was cloned into a pTriEx expression plasmid containing N-terminal Hisx6 tag. His-TRAIL was expressed in the E. coli BL-21 pLys strain and purified as previously described. Doxorubicin and cisplatin were purchased from Sigma. His-TRAIL, doxorubicin, and cisplatin were diluted in PBS to the desired concentration before using. To measure cell survival following treatment with TRAIL, cisplatin and doxorubicin, SiHa (2×10^4/well), C33A (1×10^4/well), and HNSCC cells (2×10^4/well) were seeded into 96-well plates and allowed to adhere overnight. Small molecules at the desired concentration were added and incubated at 37° C. for 4 h. As indicated, TRAIL, cisplatin or doxorubicin was then added. […]

in vitro = conditions: human
Description: as §1, §2
The extracellular domain of human TRAIL was cloned into a pTriEx expression plasmid containing N-terminal Hisx6 tag. His-TRAIL was expressed in the E. coli BL-21 pLys strain and purified as previously described. Doxorubicin and cisplatin were purchased from Sigma. His-TRAIL, doxorubicin, and cisplatin were diluted in PBS to the desired concentration before using. To measure cell survival following treatment with TRAIL, cisplatin and doxorubicin, SiHa (2×10^4/well), C33A (1×10^4/well), and HNSCC cells (2×10^4/well) were seeded into 96-well plates and allowed to adhere overnight. Small molecules at the desired concentration were added and incubated at 37° C. for 4 h. As indicated, TRAIL, cisplatin or doxorubicin was then added. […] All experiments were repeated at least three times (three biological replicates, carried out on different days), with each experimental group measured in triplicate within each of these individual experiments. […]

SiHa cells [2] = test: MTT cell viability, SiHa cells with doxorubicin or cisplatin; conditions: 100 μM myricetin, 50 μM spinacine added 4 h prior; compared to negative control
Description: as §1, with “(FIG. 3C) The indicated concentrations of myricetin or spinacine were added 4 h prior to TRAIL (100 ng/ml) in the presence of cycloheximide (5 μg/ml) and incubated at 37° C. overnight. The viability of cells untreated with small molecules was set at 100%. (FIG. 3D and FIG. 3E) SiHa cells (2×10^4 cells per well) were seeded into a 96-well plate and allowed to incubate overnight. 100 μM of myricetin and 50 μM of spinacine were added 4 h prior to either (FIG. 3D) doxorubicin or (FIG. 3E) cisplatin.” left out, “Experiments were performed in triplicate, and error bars indicate the standard deviation.” left out
The extracellular domain of human TRAIL was cloned into a pTriEx expression plasmid containing N-terminal Hisx6 tag. […] All experiments were repeated at least three times (three biological replicates, carried out on different days), with each experimental group measured in triplicate within each of these individual experiments. […]

SMILES | sensitivity of SiHa cells to TRAIL after pre-treatment (in words) (SiHa cells [1]; 100 μM myricetin or 50 μM spinacine for 4 h, TRAIL up through 100 ng/ml) | increase in cell death in the presence than in the absence of TRAIL (SiHa cells [1]; SiHa cells) | concentration required to inhibit binding and to sensitize cells (SiHa cells [1]) | EC50 (in vitro) | sensitivity of SiHa cells to doxorubicin and cisplatin (in words) (SiHa cells [2]) | EC50 for TRAIL-induced apoptosis (SiHa cells [1]; SiHa cells, compound added 4 h prior to TRAIL 100 ng/ml + cycloheximide 5 μg/ml, overnight, MTT)
O=c1c(O)c(-c2cc(O)c(O)c(O)c2)oc2cc(O)cc(O)c12 [Myricetin, reference compound] | sensitivity increased dramatically | 3.5 fold | 100 µM | 539 µM | increased the sensitivity | –
O=C(O)C1Cc2[nH]cnc2CN1 (centres unmarked) [Compound 5, 4,5,6,7-Tetrahydro-1H-imidazo(4,5-c)pyridine-6-carboxylic acid] | – | 8.6 fold | 50 µM | 268 µM | increased the sensitivity | –
OCn1cnc2ccccc21 [Compound 3, 1H-benzimidazole-1-methanol] | – | – | – | 285 µM | – | No sensitization

Source: US20180200233A1, “COMPOSITIONS FOR PREVENTING CANCERS ASSOCIATED WITH HUMAN PAPILLOMA VIRUSES” (Loma Linda University, priority 2015, published 2018)
